The values below come from ChEMBL document CHEMBL3272184.

In test [1] the target is T1, Acetylserotonin O-methyltransferase (Bos taurus) (UniProt P10950).
T1 sequence (whole entry): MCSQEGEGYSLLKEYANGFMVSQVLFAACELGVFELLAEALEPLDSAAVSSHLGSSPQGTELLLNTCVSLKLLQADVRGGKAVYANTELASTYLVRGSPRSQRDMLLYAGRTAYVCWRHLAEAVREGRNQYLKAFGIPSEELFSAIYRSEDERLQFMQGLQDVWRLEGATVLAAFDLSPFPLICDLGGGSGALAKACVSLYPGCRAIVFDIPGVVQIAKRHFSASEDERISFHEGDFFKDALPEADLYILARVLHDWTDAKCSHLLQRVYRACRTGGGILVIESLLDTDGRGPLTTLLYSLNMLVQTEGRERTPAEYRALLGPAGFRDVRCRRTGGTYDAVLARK
Nature of the test: Inhibition of bovine pineal gland hydroxyindole O-methyltransferase using 24 to 210 uM S-adenosylmethionine substrate.

Test [2] deals with T2, Catechol O-methyltransferase (Rattus norvegicus) (UniProt P22734).
T2 sequence (whole entry): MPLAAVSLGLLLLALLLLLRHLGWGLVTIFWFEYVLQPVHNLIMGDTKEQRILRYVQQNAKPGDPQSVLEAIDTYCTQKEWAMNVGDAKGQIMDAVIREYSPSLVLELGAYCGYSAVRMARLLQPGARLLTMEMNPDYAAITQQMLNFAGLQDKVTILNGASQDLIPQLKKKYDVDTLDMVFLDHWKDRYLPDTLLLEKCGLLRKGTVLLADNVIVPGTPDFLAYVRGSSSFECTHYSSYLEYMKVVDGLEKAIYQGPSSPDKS
The test is described as follows: Inhibition of Sprague-Dawley rat liver catechol O-methyltransferase using 24 to 210 uM S-adenosylmethionine substrate.

In test [3] the target is T3, Phenylethanolamine N-methyltransferase (Bos taurus) (UniProt P10938).
T3 sequence (whole entry): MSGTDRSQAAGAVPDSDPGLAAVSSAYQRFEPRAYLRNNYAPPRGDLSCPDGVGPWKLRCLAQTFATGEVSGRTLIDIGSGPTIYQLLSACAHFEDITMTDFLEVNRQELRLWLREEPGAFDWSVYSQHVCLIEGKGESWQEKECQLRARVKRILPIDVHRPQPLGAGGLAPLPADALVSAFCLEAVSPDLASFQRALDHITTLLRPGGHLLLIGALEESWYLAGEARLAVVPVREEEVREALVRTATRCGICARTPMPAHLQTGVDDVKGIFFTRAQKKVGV
The test is described as follows: Inhibition of bovine adrenal medulla phenylethanolamine N-methyltransferase using 24 to 210 uM S-adenosylmethionine substrate.

In the case of `Nc1ncnc2c1ncn2[C@@H]1C[C@@H](CSCC[C@H](N)C(=O)O)[C@@H](O)[C@H]1O`, in test [1], the Kis was 51.8 µM.
On to `Nc1ncnc2c1ncn2[C@@H]1O[C@H](CSCC[C@H](N)C(=O)O)[C@@H](O)[C@H]1O`, for which the Kis in test [1] is 18.5 µM; in test [2], 36.3 µM; in test [3], 29 µM.
